EC50 and IC50 data for 5 compounds are collected here from patent US20230233569A1 (Revolution Medicines, Inc., priority 2020, published 2023).

Experiment [1] has as its system AsPC-1 (K-Ras G12D). Briefly: Potency assay: pERK. It is filed as cell-based. To be noted: Homo sapiens, ASPC1, read-out: pERK EC50.
The next experiment has as its target KRAS G12C (Homo sapiens, UniProt P01116+P62937, G12C). The experiment is described as follows: Ras-Raf disruption / FRET / MOA assay (BRAF RBD). It is filed as biochemical. To be noted: KRAS G12C FRET data IC50, Ras-Raf disruption, with Cyclophilin A. Put shortly: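 His6-K-Ras G12C-GMPPNP (12.5 nM), GST-BRAF RBD (50 nM) and tagless Cyclophilin A (25 μM) incubated 3 h at 25 °C with compound (10-point 3-fold series from 30 μM), pH 7.3 HEPES buffer. Anti-His Eu/anti-GST APC added for 1.5 h; decreased TR-FRET ratio vs DMSO gives IC50.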

The test system of another experiment is NCI-H358 (K-Ras G12C). Briefly: CellTiter-Glo cell viability assay. To be noted: Homo sapiens, NCI-H358, 120 h, read-out: H358 Cell Viability assay data IC50, K-Ras G12C, 5-day treatment. The class given is cell-based. The essentials: (§1)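 Luminescence from CellTiter-Glo serves as the viability read-out after cells are treated with compound for 5 days. Each well's signal is divided by the DMSO average and multiplied by 100, and curves are fitted by four-parameter logistic regression.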

The test system of experiment [2] is AsPC-1 (K-Ras G12D). The experiment is described as follows: CellTiter-Glo cell viability assay. To be noted: Homo sapiens, ASPC1, 120 h, read-out: AsPC-1 Cell Viability assay data IC50, K-Ras G12D, 5-day treatment. The class given is cell-based. The essentials:
as §1

The target in the next experiment is NRAS Q61K (Homo sapiens, UniProt P01111+P62937, Q61K). Briefly: Ras-Raf disruption / FRET / MOA assay (BRAF RBD). The class given is biochemical. The essentials: (§2)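 TR-FRET in 25 mM HEPES pH 7.3, 100 mM NaCl, 5 mM MgCl2, 0.1% BSA, 0.002% Tween20 with 25 μM Cyclophilin A, 12.5 nM His6-Ras-GMPPNP, 50 nM GST-BRAF RBD; compound 10-point 3-fold series from 30 μM. After 3 h at 25 °C, Eu anti-His/APC anti-GST added for 1.5 h; IC50 from ratio decrease versus DMSO.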

The target of a further experiment is KRAS G12V (Homo sapiens, UniProt P01116+P62937, G12V). Briefly: Ras-Raf disruption / FRET / MOA assay (BRAF RBD). To be noted: KRAS G12V FRET data IC50, Ras-Raf disruption, with Cyclophilin A. The class given is biochemical. Put shortly: as §2
The target of a further experiment is NRAS WT (Homo sapiens, UniProt P01111+P62937). The experiment is described as follows: Ras-Raf disruption / FRET / MOA assay (BRAF RBD). It is filed as biochemical. Put shortly:
as §2

The next experiment deals with KRAS G13D (Homo sapiens, UniProt P01116+P62937, G13D). The experiment is described as follows: Ras-Raf disruption / FRET / MOA assay (BRAF RBD). It is filed as biochemical. To be noted: KRAS G13D FRET data IC50, Ras-Raf disruption, with Cyclophilin A. The essentials:
as §2

The next experiment addresses NRAS Q61R (Homo sapiens, UniProt P01111+P62937, Q61R). Briefly: Ras-Raf disruption / FRET / MOA assay (BRAF RBD). The class given is biochemical. The essentials: as §2
The next experiment addresses KRAS G12D (Homo sapiens, UniProt P01116+P62937, G12D). Briefly: Ras-Raf disruption / FRET / MOA assay (BRAF RBD). To be noted: KRAS G12D FRET data IC50, Ras-Raf disruption, with Cyclophilin A. It is filed as biochemical. The essentials: as §2
Another experiment concerns the target KRAS WT (Homo sapiens, UniProt P01116+P62937). The experiment is described as follows: Ras-Raf disruption / FRET / MOA assay (BRAF RBD). The class given is biochemical. To be noted: KRAS WT FRET data IC50, Ras-Raf disruption, with Cyclophilin A. Put shortly: as §2
For the next experiment, the target named is KRAS Q61H (Homo sapiens, UniProt P01116+P62937, Q61H). The experiment is described as follows: Ras-Raf disruption / FRET / MOA assay (BRAF RBD). It is filed as biochemical. Put shortly: as §2
The target of a further experiment is KRAS G13C (Homo sapiens, UniProt P01116+P62937, G13C). The experiment is described as follows: Ras-Raf disruption / FRET / MOA assay (BRAF RBD). To be noted: KRAS G13C FRET data IC50, Ras-Raf disruption, with Cyclophilin A. It is filed as biochemical. Put shortly: as §2
Another experiment deals with KRAS G12S (Homo sapiens, UniProt P01116+P62937, G12S). Briefly: Ras-Raf disruption / FRET / MOA assay (BRAF RBD). It is filed as biochemical. To be noted: KRAS G12S FRET data IC50, Ras-Raf disruption, with Cyclophilin A. The essentials: as §2
A further experiment has as its target NRAS G12C (Homo sapiens, UniProt P01111+P62937, G12C). Briefly: Ras-Raf disruption / FRET / MOA assay (BRAF RBD). The class given is biochemical. To be noted: NRAS G12C FRET data IC50, NRAS G12C. The essentials:
as §2

Where only a bound is given, the exact number is not on record here.

NRAS G12C, sequence (P01111 whole entry G12C): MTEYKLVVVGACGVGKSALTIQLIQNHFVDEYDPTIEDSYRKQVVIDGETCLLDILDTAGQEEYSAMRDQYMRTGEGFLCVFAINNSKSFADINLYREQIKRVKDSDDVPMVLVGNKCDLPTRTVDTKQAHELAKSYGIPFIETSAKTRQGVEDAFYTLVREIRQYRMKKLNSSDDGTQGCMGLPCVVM
NRAS G12C, sequence (P62937 whole entry): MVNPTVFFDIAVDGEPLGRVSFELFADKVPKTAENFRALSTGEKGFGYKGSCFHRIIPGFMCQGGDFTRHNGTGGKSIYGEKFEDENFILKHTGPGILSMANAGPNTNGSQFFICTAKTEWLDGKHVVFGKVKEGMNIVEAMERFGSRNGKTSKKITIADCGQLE
NRAS Q61K, sequence (P01111 whole entry Q61K): as the sequence (P01111 whole entry G12C) above, with C12G, Q61K counted along it
NRAS Q61K, sequence (P62937 whole entry): as the sequence (P62937 whole entry) above
KRAS G12C, sequence (P01116 1-169 isoform P01116-2 G12C limits assumed): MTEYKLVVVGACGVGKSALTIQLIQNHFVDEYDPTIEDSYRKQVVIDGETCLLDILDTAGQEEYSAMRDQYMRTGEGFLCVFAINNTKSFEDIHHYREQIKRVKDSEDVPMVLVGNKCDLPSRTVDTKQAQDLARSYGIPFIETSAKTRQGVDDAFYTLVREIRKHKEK
KRAS G12C, sequence (P62937 whole entry): as the sequence (P62937 whole entry) above
KRAS G12D, sequence (P01116 1-169 isoform P01116-2 G12D limits assumed): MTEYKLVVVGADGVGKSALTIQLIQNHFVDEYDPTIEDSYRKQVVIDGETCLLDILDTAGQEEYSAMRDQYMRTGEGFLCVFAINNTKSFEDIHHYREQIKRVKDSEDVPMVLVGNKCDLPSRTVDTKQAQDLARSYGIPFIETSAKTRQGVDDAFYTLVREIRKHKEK
KRAS G12D, sequence (P62937 whole entry): as the sequence (P62937 whole entry) above
NRAS Q61R, sequence (P01111 whole entry Q61R): as the sequence (P01111 whole entry G12C) above, with C12G, Q61R counted along it
NRAS Q61R, sequence (P62937 whole entry): as the sequence (P62937 whole entry) above
KRAS G12V, sequence (P01116 1-169 isoform P01116-2 G12V limits assumed): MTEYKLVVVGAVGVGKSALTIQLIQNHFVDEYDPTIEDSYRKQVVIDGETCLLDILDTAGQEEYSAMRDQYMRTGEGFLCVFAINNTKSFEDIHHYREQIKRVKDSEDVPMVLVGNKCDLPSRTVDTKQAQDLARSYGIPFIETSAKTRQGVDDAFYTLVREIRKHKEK
KRAS G12V, sequence (P62937 whole entry): as the sequence (P62937 whole entry) above
KRAS G13D, sequence (P01116 1-169 isoform P01116-2 G13D limits assumed): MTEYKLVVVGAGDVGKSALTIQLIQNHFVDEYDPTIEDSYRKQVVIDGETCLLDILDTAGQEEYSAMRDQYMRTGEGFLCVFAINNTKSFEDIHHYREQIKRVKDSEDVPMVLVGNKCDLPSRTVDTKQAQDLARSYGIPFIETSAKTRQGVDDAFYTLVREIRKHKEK
KRAS G13D, sequence (P62937 whole entry): as the sequence (P62937 whole entry) above
KRAS Q61H, sequence (P01116 1-169 isoform P01116-2 Q61H limits assumed): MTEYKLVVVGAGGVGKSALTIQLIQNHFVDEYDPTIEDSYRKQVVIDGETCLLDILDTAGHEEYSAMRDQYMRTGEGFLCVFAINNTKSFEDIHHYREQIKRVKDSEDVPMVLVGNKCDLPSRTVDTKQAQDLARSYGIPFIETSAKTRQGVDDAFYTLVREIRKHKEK
KRAS Q61H, sequence (P62937 whole entry): as the sequence (P62937 whole entry) above
KRAS G13C, sequence (P01116 1-169 isoform P01116-2 G13C limits assumed): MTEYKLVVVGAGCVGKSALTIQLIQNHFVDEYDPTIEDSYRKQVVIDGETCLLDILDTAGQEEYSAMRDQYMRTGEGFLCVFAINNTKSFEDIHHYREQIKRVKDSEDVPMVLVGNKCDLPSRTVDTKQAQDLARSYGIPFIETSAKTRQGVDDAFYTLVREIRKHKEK
KRAS G13C, sequence (P62937 whole entry): as the sequence (P62937 whole entry) above
KRAS WT, sequence (P01116 1-169 isoform P01116-2 limits assumed): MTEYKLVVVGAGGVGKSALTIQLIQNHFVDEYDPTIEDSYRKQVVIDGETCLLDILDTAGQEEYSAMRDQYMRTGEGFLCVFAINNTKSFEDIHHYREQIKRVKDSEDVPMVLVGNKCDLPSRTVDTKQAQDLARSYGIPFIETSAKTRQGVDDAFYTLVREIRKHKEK
KRAS WT, sequence (P62937 whole entry): as the sequence (P62937 whole entry) above
NRAS WT, sequence (P01111 whole entry): as the sequence (P01111 whole entry G12C) above, with C12G counted along it
NRAS WT, sequence (P62937 whole entry): as the sequence (P62937 whole entry) above
KRAS G12S, sequence (P01116 1-169 isoform P01116-2 G12S limits assumed): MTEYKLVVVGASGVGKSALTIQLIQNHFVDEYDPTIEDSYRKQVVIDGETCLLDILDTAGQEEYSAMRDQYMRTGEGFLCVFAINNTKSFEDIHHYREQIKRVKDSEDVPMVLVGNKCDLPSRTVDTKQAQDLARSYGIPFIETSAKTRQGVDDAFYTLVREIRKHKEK
KRAS G12S, sequence (P62937 whole entry): as the sequence (P62937 whole entry) above

`CCn1c(-c2cccnc2[C@H](C)OC)c2c3cc(ccc31)-c1cc(O)cc(c1)C[C@H](NC(=O)[C@H](C(C)C)N(C)C(=O)CN(C)C(=O)[C@@H]1CN1CCCC#N)C(=O)N1CCC[C@H](N1)C(=O)OCC(C)(C)C2` (stereo partly drawn) [Example 274]: the EC50 in the experiment with AsPC-1 (K-Ras G12D) [1] is less than 5000 nM. The IC50 is less than 10 nM against KRAS G12C; less than 10 nM in the experiment on NCI-H358 (K-Ras G12C); 100 to 1000 nM in the experiment with AsPC-1 (K-Ras G12D) [2]; 100 to 1000 nM at NRAS Q61K; 10 to 100 nM against KRAS G12V; 10 to 100 nM on NRAS WT. Besides, the IC50 against KRAS G13D lay within 10 to 100 nM; on NRAS Q61R, 100 to 1000 nM; at KRAS G12D, 10 to 100 nM; on KRAS WT, 10 to 100 nM; against KRAS Q61H it was 10 to 100 nM; on KRAS G13C, 10 to 100 nM. Besides, the IC50 at KRAS G12S is 10 to 100 nM; against NRAS G12C it was less than 10 nM.

Take `CCn1c(-c2cccnc2[C@H](C)OC)c2c3cc(ccc31)-c1cc(O)cc(c1)C[C@H](NC(=O)[C@H](C(C)C)N(C)C(=O)CN(C)C(=O)[C@H]1CN1CCCOC(C)=O)C(=O)N1CCC[C@H](N1)C(=O)OCC(C)(C)C2` (stereo partly drawn) [Example 266]: the EC50 in the experiment with AsPC-1 (K-Ras G12D) [1] was less than 5000 nM. The IC50 at KRAS G12C is less than 10 nM; with NCI-H358 (K-Ras G12C), less than 10 nM; with AsPC-1 (K-Ras G12D) [2], 100 to 1000 nM; on NRAS Q61K, 100 to 1000 nM; at KRAS G12V, 100 to 1000 nM; against NRAS WT, 100 to 1000 nM. Further, the IC50 on KRAS G13D is 100 to 1000 nM; against NRAS Q61R it was 100 to 1000 nM; at KRAS G12D it was 100 to 1000 nM; at KRAS WT it was 100 to 1000 nM; at KRAS Q61H, 10 to 100 nM; at KRAS G13C, 10 to 100 nM. Moreover, the IC50 against KRAS G12S is 10 to 100 nM; against NRAS G12C, less than 10 nM.

`CCn1c(-c2cccnc2[C@H](C)OC)c2c3cc(ccc31)-c1cc(O)cc(c1)C[C@H](NC(=O)[C@H](C(C)C)N(C)C(=O)CN(C)C(=O)[C@@]1(C)CN1)C(=O)N1CCC[C@H](N1)C(=O)OCC(C)(C)C2` [Example 256]: the EC50 in the experiment on AsPC-1 (K-Ras G12D) [1] is less than 5000 nM. The IC50 is 10 to 100 nM against KRAS G12C; 10 to 100 nM in the experiment on NCI-H358 (K-Ras G12C); 100 to 1000 nM in the experiment with AsPC-1 (K-Ras G12D) [2]; 100 to 1000 nM at NRAS Q61K; 10 to 100 nM at KRAS G12V; 10 to 100 nM at NRAS WT. Besides, the IC50 against KRAS G13D is 10 to 100 nM; against NRAS Q61R it was 100 to 1000 nM; at KRAS G12D, 10 to 100 nM; at KRAS WT, 10 to 100 nM; on KRAS Q61H, 10 to 100 nM; at KRAS G13C, less than 10 nM. Besides, the IC50 against KRAS G12S and at NRAS G12C was 10 to 100 nM in each case.

For the compound `CCn1c(-c2cccnc2[C@H](C)OC)c2c3cc(ccc31)-c1cc(O)cc(c1)C[C@H](NC(=O)[C@H](C(C)C)N(C)C(=O)CN(C)C(=O)[C@@H]1N[C@H]1C(F)(F)F)C(=O)N1CCC[C@H](N1)C(=O)OCC(C)(C)C2` [Example 260], the EC50 with AsPC-1 (K-Ras G12D) [1] is less than 5000 nM. The IC50 against KRAS G12C was in the range of 10 to 100 nM; in the experiment with NCI-H358 (K-Ras G12C), 10 to 100 nM; in the experiment on AsPC-1 (K-Ras G12D) [2], 100 to 1000 nM; against NRAS Q61K it was 10 to 100 nM; against KRAS G12V, 10 to 100 nM; against NRAS WT, 10 to 100 nM. In addition, the IC50 at KRAS G13D is 10 to 100 nM; on NRAS Q61R, 100 to 1000 nM; at KRAS G12D, 10 to 100 nM; on KRAS WT, 10 to 100 nM; at KRAS Q61H it was 10 to 100 nM; at KRAS G13C, less than 10 nM. For the same compound, the IC50 against KRAS G12S and on NRAS G12C was 10 to 100 nM throughout.

For `CCn1c(-c2cccnc2[C@H](C)OC)c2c3cc(ccc31)-c1cc(O)cc(c1)C[C@H](NC(=O)[C@H](C(C)C)N(C)C(=O)CN(C)C(=O)[C@@H]1CN1C1COC1)C(=O)N1CCC[C@H](N1)C(=O)OCC(C)(C)C2` (stereo partly drawn) [Example 276], the EC50 with AsPC-1 (K-Ras G12D) [1] was less than 5000 nM. Further, the IC50 was in the range of 10 to 100 nM at KRAS G12C; 10 to 100 nM in the experiment with NCI-H358 (K-Ras G12C); 1000 to 10000 nM with AsPC-1 (K-Ras G12D) [2]; 100 to 1000 nM against NRAS Q61K; 10 to 100 nM against KRAS G12V; 10 to 100 nM against NRAS WT. For the same compound, the IC50 on KRAS G13D lay within 10 to 100 nM; against NRAS Q61R it was 100 to 1000 nM; against KRAS G12D it was 10 to 100 nM; against KRAS WT, 10 to 100 nM; at KRAS Q61H, 10 to 100 nM; at KRAS G13C, 10 to 100 nM. Moreover, the IC50 against KRAS G12S was 10 to 100 nM; against NRAS G12C, less than 10 nM.
